The assay relates to Female Balb/c mice. Kind of assay: Immunization of Balb/c mice with OVA cDNA in the presence and absence of DMPS; anti-OVA antibody ELISA of serum. The class given is in vivo. The conditions noted are these: anti-OVA ELISA on OVA coated plates, serum dilution 1:100, bled 14 days after last immunization, i.m. days 1 and 15, 20 OVA DNA alone or +50 DMPS. The method, then: Female Balb/c mice were immunized intramuscularly at days 1 and 15 with 0.2 mL of phosphate buffered saline solution (PBS) containing 20 μg of chicken OVA cDNA alone or with 50 μg of 3-dimethylamino-1-propylamino-DS-saponin (DMPS). The complete OVA cDNA was sub-cloned into a mammalian expression vector containing the human β-actin promotor and the neomycin resistant gene, under control of the SV40 promotor, to yield pAC-Neo-OVA. Negative control animals received PBS only. Animals were bled 14 days after the last immunization. Total IgG and IgG2a were determined by ELISA using OVA coated plates and a serum dilution of 1:100. The serum dilution was incubated at 37° C. for 1 hour and the plates were washed. After incubation with anti IgG-HRP conjugate, the plates were washed and developed with a TMB substrate for 15 minutes at room temperature, stopped by the addition of 0.18 M sulfuric acid, and read at 450 nm.

“And” between values parts separate entries of the source, which are not always exact repeats. Equal values may be shown once.

Consider “3-dimethylamino-1-propylamino-DS-saponin [DMPS]”, for which, under “average of 5 mice ± spread”, the “Absorbance (450 nm), Average” value was 0.188 ± 0.093. The “Absorbance (450 nm), individual mice” value (mice 1-5) is 0.400 and 0.210 and 0.092 and 0.140 and 0.100.

These data come from patent publication US20040242502A1, “Semi-synthetic saponin analogs with carrier and immune stimulatory activities for DNA and RNA vaccines” (Galenica Pharmaceuticals, Inc., priority 2003, published 2004).
